We go through 5 molecules from PubChem BioAssay AID2060490 (Molecular Pharmacology Branch, DTP, NCI, 2025).

pIC50: −log10 of the molar value. Where “and” joins values, the source holds several entries; their conditions need not be identical. Equal entries are not always repeated.

This test concerns 885512-296-R-J2-PDC complex spheroid viability. Description: Anticancer human tumor 885512-296-R-J2-PDC patient-derived breast carcinoma cell line growth inhibition [GQUAD]. As to conditions: for viability, T/C: stronger effect = lower value. From the text:
DNA G-quadruplex Stabilizer Agents in Combinations in Complex Spheroids
A high-throughput screen of multi-cell type tumor spheroids was designed to identify active combinations of DNA G-quadruplex stabilizer agents and targeted small molecules. Complex spheroids include a stromal component modeled by human endothelial cells (HUVEC) and fibroblasts modeled by human mesenchymal stem cells (MSCs). The concentration ranges selected for each drug and investigational agent were based upon clinically achievable concentrations if the clinical Cmax of the agent was known.
Compounds. The drugs and investigational agents: pidnarulex (CX-5461; NSC782164), APTO-253 (NSC789042), BRACO-19 (NSC847499), peposertib (NSC802822), ceralasertib (NSC780249), elimusertib (NSC800525), camonsertib (NSC841442), AZD-1390 (NSC803789), olaparib (NSC753686), talazoparib (NSC767125), ART-558 (NSC835418), sotorasib (NSC818433), MRTX-1133 (NSC836407), SN-38 (NSC673596), topotecan (NSC609699), etoposide (NSC141540), doxorubicin (NSC123127), gemcitabine (NSC613327), 5-fluorouracil (NSC19893), paclitaxel (NSC125973), vemurafenib (NSC761431), panobinostat (NSC761190), R-306465 (JNJ-16241199; NSC773264), adavosertib (NSC754352), TP-3654 (NSC805149), carboplatin (NSC241240), KSQ-4279 (NSC840948), and staurosporine (NSC755774) were obtained from the National Cancer Institute (NCI) Developmental Therapeutics Program Chemical Repository (34). The FDA-approved anticancer drug set is available from the NCI Developmental Therapeutics Program. […] The stock solutions were prepared in dimethyl sulfoxide (DMSO, Sigma-Aldrich, St. Louis, MO, cat. D2650) at 800-fold the tested concentration and stored at -70 degrees C prior to their use. All drugs and investigational agents were tested over a range starting from a high concentration at or near the clinical Cmax and decreasing in half-log increments. If the clinical Cmax for an agent had not been determined, the highest concentration tested was 10 microM.
2.3 Cell Culture. All cells were maintained in an incubator at 37 degrees C and 5% CO2 with 95% humidity. The PDC lines were cultured according to standard operating procedures established by the NCI PDMR. All PDCs were thawed and cultured in Matrigel-coated flasks prepared with a working solution of 1X Ham's F-12 nutrient mix, without supplementation (Invitrogen, cat. 11765054), 100 U/mL penicillin-streptomycin (Invitrogen, cat. 15140122), and 2.5% Matrigel (Corning Inc., cat. 354248) for the first three passages. The 857933-349-R-J2-PDC line was cultured in 6C/Colon 1B media, which includes advanced DMEM/F-12 (Thermo Fisher Scientific, cat. 12634028), 10 mM HEPES (Thermo Fisher Scientific, cat. 15630080), 1X GlutaMAX supplement (Thermo Fisher Scientific, cat. 35050061), 0.1 mg/mL primocin (InvivoGen, cat. ant-pm-2), 10% defined fetal bovine serum, heat inactivated (HyClone Laboratories Inc., cat. SH30070.03HI), 50% L-WRN conditioned media (ATCC, cat. CRL-3276), 1.25 mM N-Acetyl-L-cysteine (Sigma-Aldrich, cat. A9165), 10 mM nicotinamide (Sigma-Aldrich, cat. N0636), 1X B-27 supplement (Thermo Fisher Scientific, cat. 17504044), 1X N-2 supplement (Thermo Fisher Scientific, cat. 17502048), 10 microM Y-27632 dihydrochloride (Tocris Bioscience, cat. 1254), and 50 ng/mL human EGF recombinant protein (Thermo Fisher Scientific, cat. PHG0311). The 485176-168-R4-J1-PDC line was cultured in Panc media, which includes all 6C/Colon 1B media components plus 100 ng/mL human FGF-10 (Thermo Fisher Scientific, cat. 100-26), 500 nM SB-431542 (Selleckchem, cat. S1067), and gastrin (Tocris, cat. 3006).
[…]

Where [1] appears, read: curve of first compound, second compound 0.0316 µM.
Where [2] appears, read: curve of first compound, second compound 0.1 µM.
Where [3] appears, read: curve of first compound, second compound 0.316 µM.
The mark [4] stands for this setting: curve of first compound, second compound 1 µM.
Where [5] appears, read: curve of first compound, second compound 3.16 µM.
Setting [6] is: curve of first compound, second compound 10 µM.
[7] abbreviates: second compound 0.0316 µM, first compound 0.0316 µM.
Setting [8] is: second compound 0.0316 µM, first compound 0.316 µM.
Setting [9] is: second compound 0.1 µM, first compound 0.0316 µM.
Where [10] appears, read: second compound 0.1 µM, first compound 0.316 µM.
[11] abbreviates: second compound 0.316 µM, first compound 0.0316 µM.
[12] abbreviates: second compound 0.316 µM, first compound 0.316 µM.
[13] abbreviates: second compound 1 µM, first compound 0.0316 µM.
[14] abbreviates: second compound 1 µM, first compound 0.316 µM.
[15] abbreviates: second compound 3.16 µM, first compound 0.0316 µM.
Where [16] appears, read: second compound 3.16 µM, first compound 0.316 µM.
Setting [17] is: second compound 10 µM, first compound 0.0316 µM.
Where [18] appears, read: second compound 10 µM, first compound 0.316 µM.
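Also: spheroids exposed to the compounds for one week.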
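For viability, T/C in this document: percent of tumor spheroid viability relative to DMSO vehicle control wells.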

`Cc1[nH]c2ccccc2c1CCNCc1ccc(/C=C/C(=O)NO)cc1` + Cc1cnc(CNC(=O)c2c(=O)c3ccc(N4CCCN(C)CC4)nc3n3c2sc2ccccc23)cn1: the pIC50 by setting is: under setting [1], 7.82; under setting [2], more than 9.00; under setting [3], more than 9.00; under setting [4], more than 9.00; under setting [5], more than 9.00; under setting [6], more than 9.00. The viability, T/C reads like this: (second compound 0.0316 µM, first compound 0.000999 µM) 83.8%; (second compound 0.0316 µM, first compound 0.00316 µM) 80.2%; (second compound 0.0316 µM, first compound 0.00999 µM) 52%; under setting [7], 34.5%; (second compound 0.0316 µM, first compound 0.0999 µM) 27.9%; under setting [8], 5.52%. In addition, the viability, T/C is 52.9% (second compound 0.1 µM, first compound 0.000999 µM); 43.2% (second compound 0.1 µM, first compound 0.00316 µM); 38.6% (second compound 0.1 µM, first compound 0.00999 µM); 36.9% under setting [9]; 29.8% (second compound 0.1 µM, first compound 0.0999 µM); 6.34% under setting [10]. The viability, T/C (second compound 0.316 µM, first compound 0.000999 µM) was 27.3%; the viability, T/C (second compound 0.316 µM, first compound 0.00316 µM) is 16%; the viability, T/C (second compound 0.316 µM, first compound 0.00999 µM) was 15.3%; the viability, T/C under setting [11] was 22.8%; the viability, T/C (second compound 0.316 µM, first compound 0.0999 µM) was 25.1%; the viability, T/C under setting [12] was 5.41%. Besides, the viability, T/C by setting is: (second compound 1 µM, first compound 0.000999 µM) 17.4%; (second compound 1 µM, first compound 0.00316 µM) 14.9%; (second compound 1 µM, first compound 0.00999 µM) 19.2%; under setting [13], 15.4%; (second compound 1 µM, first compound 0.0999 µM) 13.9%; under setting [14], 0.1%. The viability, T/C was 19.2% (second compound 3.16 µM, first compound 0.000999 µM); 17.6% (second compound 3.16 µM, first compound 0.00316 µM); 0.21% (second compound 3.16 µM, first compound 0.00999 µM); 0.22% under setting [15]; 0.15% (second compound 3.16 µM, first compound 0.0999 µM); 0.13% under setting [16]. Further, the viability, T/C is, setting by setting: (second compound 10 µM, first compound 0.000999 µM) 0.17%; (second compound 10 µM, first compound 0.00316 µM) 0.17%; (second compound 10 µM, first compound 0.00999 µM) 0.24%; under setting [17], 0.22%; (second compound 10 µM, first compound 0.0999 µM) 0.22%; under setting [18], 0.23%.
In the case of `C=CCn1c(=O)c2cnc(Nc3ccc(N4CCN(C)CC4)cc3)nc2n1-c1cccc(C(C)(C)O)n1`, the viability, T/C (compound 0.0316 µM) is 94.9% and 110% and 103%; the viability, T/C (compound 0.1 µM) was 92.2% and 91.9% and 92.6%; the viability, T/C (compound 0.316 µM) is 99.1% and 52.3% and 57.8%; the viability, T/C (compound 1 µM) is 125% and 7.26% and 11%.
Regarding `CC1COCCN1c1cc(C2(S(C)(=N)=O)CC2)nc(-c2ccnc3[nH]ccc23)n1` (configuration not stated), the viability, T/C is 103% (2×) and 99.8% (compound 0.0316 µM); 106% and 90.2% and 88.9% (compound 0.1 µM); 98.9% and 83.5% and 84.4% (compound 0.316 µM); 43% and 40% and 30% (compound 1 µM); 5.74% and 6.03% and 4.64% (compound 3.16 µM); 4.07% and 4.55% and 4.14% (compound 10 µM). Besides, the pIC50 (curve of compound) is 6.06 and 6.12 and 6.19.
`CN(C)c1ccc(Nc2c3ccc(NC(=O)CCN4CCCC4)cc3nc3cc(NC(=O)CCN4CCCC4)ccc23)cc1`: the viability, T/C reads like this: (compound 0.0316 µM) 100% [middle of 12 runs]; (compound 0.1 µM) 102% [middle of 12 runs]; (compound 0.316 µM) 105% [middle of 12 runs]; (compound 1 µM) 102% [middle of 12 runs]; (compound 3.16 µM) 103% [middle of 12 runs]; (compound 10 µM) 21.1% [middle of 12 runs]. For the setting “compound alone, run of 04/22/2024”, the IC50 is 6.43 µM [middle of 11 runs].
Consider `COc1cc(C2c3cc4c(cc3C(OC3OC5COC(C)OC5C(O)C3O)C3COC(=O)C23)OCO4)cc(OC)c1O` (configuration not stated) + Cc1[nH]c2ccc(F)cc2c1-c1nc2c3cccnc3c3ncccc3c2[nH]1, for which the pIC50 is, setting by setting: under setting [1], 6.13; under setting [2], 6.09; under setting [3], 6.15; under setting [4], 6.24; under setting [5], more than 7.50; under setting [6], more than 7.50. Also, the viability, T/C under setting [7] is 96.3%; the viability, T/C (second compound 0.0316 µM, first compound 0.1 µM) is 86.7%; the viability, T/C under setting [8] was 77.3%; the viability, T/C (second compound 0.0316 µM, first compound 1 µM) was 41%; the viability, T/C (second compound 0.0316 µM, first compound 3.16 µM) is 13.6%; the viability, T/C (second compound 0.0316 µM, first compound 10 µM) was 10.1%. Also, the viability, T/C was 117% under setting [9]; 91.5% (second compound 0.1 µM, first compound 0.1 µM); 94.2% under setting [10]; 39.9% (second compound 0.1 µM, first compound 1 µM); 11.4% (second compound 0.1 µM, first compound 3.16 µM); 10% (second compound 0.1 µM, first compound 10 µM). Further, the viability, T/C is 91.8% under setting [11]; 98.4% (second compound 0.316 µM, first compound 0.1 µM); 82.1% under setting [12]; 36.1% (second compound 0.316 µM, first compound 1 µM); 16.5% (second compound 0.316 µM, first compound 3.16 µM); 8.49% (second compound 0.316 µM, first compound 10 µM). For the same molecule, the viability, T/C reads like this: under setting [13], 70.5%; (second compound 1 µM, first compound 0.1 µM) 76%; under setting [14], 62.3%; (second compound 1 µM, first compound 1 µM) 37.9%; (second compound 1 µM, first compound 3.16 µM) 13.7%; (second compound 1 µM, first compound 10 µM) 6.78%. The viability, T/C is 21.3% under setting [15]; 13.6% (second compound 3.16 µM, first compound 0.1 µM); 15.8% under setting [16]; 7.13% (second compound 3.16 µM, first compound 1 µM); 4.87% (second compound 3.16 µM, first compound 3.16 µM); 2.93% (second compound 3.16 µM, first compound 10 µM). For the same molecule, the viability, T/C was 1.61% under setting [17]; 3.08% (second compound 10 µM, first compound 0.1 µM); 1.52% under setting [18]; 1.53% (second compound 10 µM, first compound 1 µM); 1.51% (second compound 10 µM, first compound 3.16 µM); 1.37% (second compound 10 µM, first compound 10 µM).
